Assay results: paper PMC7688068 (Journal of medicinal chemistry, 2020)

Assays:
mPTPB [1] = biological target: T1, mPTPB (Mycobacterium tuberculosis, UniProt I6WXK4); format: biochemical
Raw264.7 cells = format: in vitro ADME, mouse; conditions: for cellular permeability compared to positive control compound 9 of ref 55: 20 μM input, 2 h, 37 °C; for cellular uptake (cellular bioavailability): LC-MS-based method
[2] = test system: Raw 264.7 vector cells (pcN-HA); test: signaling in vector control cells, western blot, IFN-γ stimulated; format: cell-based, mouse; conditions: IFN-γ stimulation
[3] = test system: mouse embryonic fibroblasts (MEF cells); conditions: 72 h, up to 25 μM
mPTPB [4] = biological target: T1, mPTPB; format: biochemical; remark: listed apart in the source

T1 sequence (I6WXK4 whole entry, looked up): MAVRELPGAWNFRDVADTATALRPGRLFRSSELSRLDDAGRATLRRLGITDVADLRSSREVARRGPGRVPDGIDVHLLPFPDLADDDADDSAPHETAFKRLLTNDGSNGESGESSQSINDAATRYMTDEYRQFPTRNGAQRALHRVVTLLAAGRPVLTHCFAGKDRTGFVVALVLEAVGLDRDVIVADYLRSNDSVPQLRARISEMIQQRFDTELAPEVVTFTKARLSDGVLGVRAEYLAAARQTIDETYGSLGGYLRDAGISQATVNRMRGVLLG

O=C(O)C(=O)Nc1ccc(C#Cc2ccc(C(F)(F)F)cc2Cl)cc1 [Compound 4t, 2-((4-((2-Chloro-4-(trifluoromethyl)phenyl)ethynyl)phenyl)amino)-2-oxoacetic Acid]
mode of mPTPB inhibition (mPTPB [1]): reversible and competitive inhibitor
cellular permeability compared to positive control compound 9 of ref 55 (Raw264.7 cells): better cellular permeability
cellular uptake (cellular bioavailability) (Raw264.7 cells): can easily be taken up
pAKT, pERK1/2 and pp38 levels compared to vehicle-treated cells [2]: no significant change
cytotoxicity (cell viability, MTT) [3]: did not exhibit any significant cytotoxicity

O=C(O)C(=O)Nc1ccc(CCc2ccc(C(F)(F)F)cc2)cc1 [Compound 12, 2-Oxo-2-((4-(4-(trifluoromethyl)phenethyl)phenyl)amino)acetic Acid]
fold less potency compared to corresponding alkyne analogue (mPTPB [4]): 13 fold

O=C(O)C(=O)Nc1ccc(C#Cc2ccc(C(F)(F)F)cc2F)cc1 [Compound 4v, 2-((4-((2-Fluoro-4-(trifluoromethyl)phenyl)ethynyl)phenyl)amino)-2-oxoacetic Acid]
cellular uptake (cellular bioavailability) (Raw264.7 cells): can easily be taken up

O=C(O)C(=O)Nc1ccc(C#Cc2ccc(C(F)(F)F)cc2Br)cc1 [Compound 4u, 2-((4-((2-Bromo-4-(trifluoromethyl)phenyl)ethynyl)phenyl)amino)-2-oxoacetic Acid]
cellular permeability compared to positive control compound 9 of ref 55 (Raw264.7 cells): better cellular permeability
cellular uptake (cellular bioavailability) (Raw264.7 cells): can easily be taken up

O=C(O)C(=O)Nc1ccc(C#Cc2ccc(C(F)(F)F)cc2)cc1 [Compound 4k, 2-Oxo-2-((4-((4-(trifluoromethyl)phenyl)ethynyl)phenyl)amino)acetic Acid]
cellular permeability compared to positive control compound 9 of ref 55 (Raw264.7 cells): better cellular permeability
cellular uptake (cellular bioavailability) (Raw264.7 cells): can easily be taken up

O=C(O)C(=O)Nc1ccc(/C=C\c2ccccc2)cc1 [Compound 9, (Z)-2-Oxo-2-((4-styrylphenyl)amino)acetic Acid]
fold less potency compared to corresponding alkyne analogue (mPTPB [4]): 3 fold

O=C(O)C(=O)Nc1ccc(CCc2ccccc2)cc1 [Compound 11, 2-Oxo-2-((4-phenethylphenyl)amino)acetic Acid]
fold less potency compared to corresponding alkyne analogue (mPTPB [4]): 5 fold

O=C(O)C(=O)Nc1ccc(/C=C\c2ccc(C(F)(F)F)cc2)cc1 [Compound 10, (Z)-2-Oxo-2-((4-(4-(trifluoromethyl)styryl)phenyl)amino)acetic Acid]
fold less potency compared to corresponding alkyne analogue (mPTPB [4]): 45 fold

CC(C)(C)OC(=O)Nc1ccc(C#Cc2ccc(NC(=O)C(=O)O)cc2)cc1 [Compound 4s, 2-((4-((4-((tert-Butoxycarbonyl)amino)phenyl)ethynyl)phenyl)amino)-2-oxoacetic Acid]
cellular permeability compared to positive control compound 9 of ref 55 (Raw264.7 cells): better cellular permeability
cytotoxicity (cell viability, MTT) [3]: did not exhibit any significant cytotoxicity
